Measured values as given in ChEMBL document CHEMBL1201862, “PubChem BioAssay data set” (2004).
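Tested at 5 concentrations; 48 h exposure; 96-well plates; endpoints linearly interpolated, else capped at highest concentration. Here, GI50 denotes the concentration required for 50% inhibition of growth.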 Active and inactive are the calls of the source. Cut-off read from the data, not from the text of the source: active = GI50 up to about 1.1 µM and inactive = higher.

Assays:
Test in all cases: NCI tumour cell line growth inhibition, 48 h
786-0 = tested on: 786-0
A498 = tested on: A498
A549 = tested on: A549
ACHN = tested on: ACHN
BT-549 = tested on: BT-549
CAKI-1 = tested on: CAKI-1
CCRF-CEM = tested on: CCRF-CEM
COLO 205 = tested on: COLO 205
DU-145 = tested on: DU-145
EKVX = tested on: EKVX
HCC 2998 = tested on: HCC 2998
HCT-116 = tested on: HCT-116
HCT-15 = tested on: HCT-15
HL-60 = tested on: HL-60
HOP-92 = tested on: HOP-92
HT-29 = tested on: HT-29
Hs-578T = tested on: Hs-578T
IGROV-1 = tested on: IGROV-1
K562 = tested on: K562
KM12 = tested on: KM12
LOX IMVI = tested on: LOX IMVI
M14 = tested on: M14
MCF7 = tested on: MCF7
MDA-MB-231 = tested on: MDA-MB-231
MDA-N = tested on: MDA-N
MOLT-4 = tested on: MOLT-4
Malme-3M = tested on: Malme-3M
NCI-H226 = tested on: NCI-H226
NCI-H23 = tested on: NCI-H23
NCI-H460 = tested on: NCI-H460
NCI/ADR-RES = tested on: NCI/ADR-RES
OVCAR-3 = tested on: OVCAR-3
OVCAR-5 = tested on: OVCAR-5
OVCAR-8 = tested on: OVCAR-8
PC-3 = tested on: PC-3
RXF 393 = tested on: RXF 393
SF-268 = tested on: SF-268
SF-295 = tested on: SF-295
SF-539 = tested on: SF-539
SK-MEL-28 = tested on: SK-MEL-28
SK-MEL-2 = tested on: SK-MEL-2
SK-MEL-5 = tested on: SK-MEL-5
SK-OV-3 = tested on: SK-OV-3
SN12C = tested on: SN12C
SNB-19 = tested on: SNB-19
SNB-75 = tested on: SNB-75
SW-620 = tested on: SW-620
T47D = tested on: T47D
TK-10 = tested on: TK-10
U-251 = tested on: U-251
UACC-257 = tested on: UACC-257
UACC-62 = tested on: UACC-62
UO-31 = tested on: UO-31
MDA-MB-435 = tested on: MDA-MB-435
NCI-H522 = tested on: NCI-H522
OVCAR-4 = tested on: OVCAR-4
RPMI-8226 = tested on: RPMI-8226
SR = tested on: SR

Measured: GI50

CC1C2(C)OC(=N)C(C#N)(C(c3ccco3)O2)C1(C#N)C#N (stereo not drawn)
12.5 µM: HCT-15
inactive: 786-0 20.8 µM | A498 > 100 µM | A549 > 100 µM | ACHN 36.6 µM | BT-549 35.2 µM | CAKI-1 14.4 µM | CCRF-CEM 23.6 µM | COLO 205 13.6 µM | DU-145 31 µM | EKVX 34 µM | HCC 2998 26.9 µM | HCT-116 26.7 µM | HL-60 18.8 µM | HOP-92 22.3 µM | HT-29 32.8 µM | Hs-578T 24.9 µM | IGROV-1 58.9 µM | K562 34.9 µM | KM12 59.8 µM | LOX IMVI 19.2 µM | M14 19.1 µM | MCF7 22.4 µM | MDA-MB-231 19.1 µM | MDA-N 19.8 µM | MOLT-4 32.2 µM | Malme-3M 31.2 µM | NCI-H226 > 100 µM | NCI-H23 29.9 µM | NCI-H460 19.3 µM | NCI/ADR-RES > 100 µM | OVCAR-3 21.3 µM | OVCAR-5 29.7 µM | OVCAR-8 39.9 µM | PC-3 36.6 µM | RXF 393 22.6 µM | SF-268 29 µM | SF-295 > 100 µM | SF-539 19.5 µM | SK-MEL-28 18.4 µM | SK-MEL-2 29.4 µM | SK-MEL-5 14.9 µM | SK-OV-3 > 100 µM | SN12C 16.7 µM | SNB-19 42.5 µM | SNB-75 97.3 µM | SW-620 16.4 µM | T47D 17.8 µM | TK-10 37.9 µM | U-251 24.4 µM | UACC-257 20.5 µM | UACC-62 17.7 µM | UO-31 38.5 µM

Cc1nc(Nc2nc3ccccc3[nH]2)nc(Cl)c1CCCl
active: HOP-92 < 0.01 µM
inactive: 786-0 > 100 µM | A498 > 100 µM | A549 > 100 µM | ACHN > 100 µM | BT-549 > 100 µM | CAKI-1 > 100 µM | CCRF-CEM > 100 µM | COLO 205 > 100 µM | DU-145 > 100 µM | EKVX > 100 µM | HCT-116 > 100 µM | HL-60 > 100 µM | HT-29 > 100 µM | Hs-578T 83.8 µM | IGROV-1 > 100 µM | K562 > 100 µM | KM12 > 100 µM | M14 > 100 µM | MDA-MB-231 > 100 µM | MDA-MB-435 > 100 µM | MDA-N > 100 µM | MOLT-4 > 100 µM | Malme-3M > 100 µM | NCI-H226 > 100 µM | NCI-H23 > 100 µM | NCI-H460 > 100 µM | NCI-H522 > 100 µM | NCI/ADR-RES > 100 µM | OVCAR-4 > 100 µM | OVCAR-8 > 100 µM | PC-3 > 100 µM | RPMI-8226 > 100 µM | SF-268 95.7 µM | SF-539 > 100 µM | SK-MEL-28 > 100 µM | SK-MEL-2 > 100 µM | SK-MEL-5 > 100 µM | SN12C > 100 µM | SNB-19 > 100 µM | SNB-75 89.3 µM | SR > 100 µM | SW-620 > 100 µM | T47D > 100 µM | TK-10 > 100 µM | U-251 49 µM | UACC-257 > 100 µM | UACC-62 > 100 µM | UO-31 > 100 µM
> 100 µM: HCT-15
